Measured values published in patent US20240140986A1, “SYNTHETIC URSOLIC ACID DERIVATIVES AND METHODS OF USE THEREOF” (REATA PHARMACEUTICALS, INC., priority 2021, published 2024).
Read-outs that look alike come from different tables or passages of the source.

Key:
[1] = test system: Nrf2 / ARE-dependent luciferase in AREc32 reporter cell line; test: AREc32 luciferase reporter activation (Nrf2 induction); assay type: cell-based, human; conditions: for EC (2-fold): Homo sapiens, Arec32; for Relative Avg AREc32 EC2X Relative to RTA402 (fold): ratio to RTA402
Outline: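 EC2X is the concentration raising luminescence 2-fold above DMSO-treated cells, from a nonlinear-regression dose–response fit. Compounds (0.03–1000 nM) were applied for nineteen hours, starting one day after seeding 20,000 reporter cells per well. Luciferase was read with One-Glo reagent.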

[2] = test system: IFNγ-induced NO production in RAW 264.7 cells; test: Nitric Oxide Suppression Assay (IFNγ-induced NO, Griess nitrite readout); assay type: cell-based, mouse; conditions: for IC50: Mus musculus, read-out: Avg NO IC50 (nM) (Mean ± SD); for Avg NO IC50 Relative to RTA402 (fold): Table 2, ratio to RTA402
Outline: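 Nitrite, a surrogate for NO, was measured by Griess reagent (525 nm) and quantified from standards by linear regression, expressed as percent of DMSO plus IFNγ control to give IC50. RAW 264.7 cells had 2 h compound pretreatment, then 24 h with 20 ng/mL IFNγ; WST-1 checked viability.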

[3] = Table 2, concentration increasing luminescence 2-fold above vehicle, 19 h treatment, read-out: Avg AREc32 EC2X (nM) (Mean ± SD)
[4] = Table 3, ursolic acid derivatives, read-out: Avg ARE EC-2X (nM) (Mean ± SD)
[5] = RAW264.7, Table 2, RAW 264.7 cells, 2 h pretreatment, 20 ng/mL interferon gamma 24 h
[6] = RAW264.7, Table 3, ursolic acid derivatives

| SMILES | EC (2-fold) [1, 3] [nM] | EC (2-fold) [1, 4] [nM] | Relative Avg AREc32 EC2X Relative to RTA402 (fold) ([1]; Table 2) | IC50 [2, 5] [nM] | IC50 [2, 6] [nM] | Avg NO IC50 Relative to RTA402 (fold) [2] [fold] |
| --- | --- | --- | --- | --- | --- | --- |
| C[C@@H]1[C@H]2[C@H]3C(=O)C=C4[C@@]5(C)C=C(C#N)C(=O)C(C)(C)[C@@H]5CC[C@@]4(C)[C@]3(C)CC[C@@]2(CN)CC[C@H]1C [Compound T21] | 14.7 ± 1.3 | 14.7 ± 1.3 | 1.27 ± 0.045 | 26 ± 7.6 | 26 ± 7.6 | 10.9 ± 1.6 |
| CC(=O)NC[C@]12CC[C@@H](C)[C@H](C)[C@H]1[C@H]1C(=O)C=C3[C@@]4(C)C=C(C#N)C(=O)C(C)(C)[C@@H]4CC[C@@]3(C)[C@]1(C)CC2 [Compound T22] | 2.99 ± 1.62 | – | 0.244 ± 0.080 | 3.58 ± 2.16 | – | 0.94 ± 0.14 |
| CCC(=O)NC[C@]12CC[C@@H](C)[C@H](C)[C@H]1[C@H]1C(=O)C=C3[C@@]4(C)C=C(C#N)C(=O)C(C)(C)[C@@H]4CC[C@@]3(C)[C@]1(C)CC2 [Compound T23] | 1.89 ± 0.91 | 1.89 ± 0.91 | 0.166 ± 0.071 | 3.07 ± 1.43 | 3.07 ± 1.43 | 0.80 ± 0.13 |
| [2H]C([2H])([2H])C(=O)NC[C@]12CC[C@@H](C)[C@H](C)[C@H]1[C@H]1C(=O)C=C3[C@@]4(C)C=C(C#N)C(=O)C(C)(C)[C@@H]4CC[C@@]3(C)[C@]1(C)CC2 [Compound T24] | 1.49 ± 0.31 | 1.49 ± 0.31 | 0.126 ± 0.026 | 2.87 ± 1.67 | 2.87 ± 1.67 | 0.967 ± 0.21 |
| C[C@@H]1[C@H]2[C@H]3C(=O)C=C4[C@@]5(C)C=C(C#N)C(=O)C(C)(C)[C@@H]5CC[C@@]4(C)[C@]3(C)CC[C@@]2(CNC(=O)C2CCC2)CC[C@H]1C [Compound T25] | 2.88 ± 0.13 | – | 0.259 ± 0.036 | 5.11 ± 1.69 | – | 1.49 ± 0.35 |
| CNC(=O)NC[C@]12CC[C@@H](C)[C@H](C)[C@H]1[C@H]1C(=O)C=C3[C@@]4(C)C=C(C#N)C(=O)C(C)(C)[C@@H]4CC[C@@]3(C)[C@]1(C)CC2 [Compound T26] | 2.23 ± 0.29 | 2.23 ± 0.29 | 0.177 ± 0.020 | 5.12 ± 2.22 | 5.12 ± 2.22 | 1.71 ± 0.70 |
| C[C@@H]1[C@H]2[C@H]3C(=O)C=C4[C@@]5(C)C=C(C#N)C(=O)C(C)(C)[C@@H]5CC[C@@]4(C)[C@]3(C)CC[C@@]2(CNC(=O)N2CCC2)CC[C@H]1C [Compound T27] | 1.62 ± 0.22 | – | 0.144 ± 0.008 | 4.03 ± 1.66 | – | 1.15 ± 0.40 |
| C[C@@H]1[C@H]2[C@H]3C(=O)C=C4[C@@]5(C)C=C(C#N)C(=O)C(C)(C)[C@@H]5CC[C@@]4(C)[C@]3(C)CC[C@@]2(CNC(=O)C(F)F)CC[C@H]1C [Compound T28] | 4.33 ± 1.62 | – | 0.331 ± 0.101 | 3.64 ± 1.69 | – | 1.15 ± 0.32 |
| C[C@@H]1[C@H]2[C@H]3C(=O)C=C4[C@@]5(C)C=C(C#N)C(=O)C(C)(C)[C@@H]5CC[C@@]4(C)[C@]3(C)CC[C@@]2(CNC(=O)C(C)(F)F)CC[C@H]1C [Compound T29] | 3.88 ± 1.19 | – | 0.317 ± 0.086 | 4.21 ± 1.75 | – | 1.47 ± 0.32 |
| COC(=O)NC[C@]12CC[C@@H](C)[C@H](C)[C@H]1[C@H]1C(=O)C=C3[C@@]4(C)C=C(C#N)C(=O)C(C)(C)[C@@H]4CC[C@@]3(C)[C@]1(C)CC2 [Compound T30] | 3.29 ± 0.61 | – | 0.27 ± 0.06 | 5.12 ± 1.21 | – | 1.33 ± 0.30 |
| C[C@@H]1[C@H]2[C@H]3C(=O)C=C4[C@@]5(C)C=C(C#N)C(=O)C(C)(C)[C@@H]5CC[C@@]4(C)[C@]3(C)CC[C@@]2(CNS(C)(=O)=O)CC[C@H]1C [Compound T31] | 4.36 ± 0.81 | – | 0.373 ± 0.071 | 7.7 ± 3.1 | – | 2.25 ± 0.49 |
| CCS(=O)(=O)NC[C@]12CC[C@@H](C)[C@H](C)[C@H]1[C@H]1C(=O)C=C3[C@@]4(C)C=C(C#N)C(=O)C(C)(C)[C@@H]4CC[C@@]3(C)[C@]1(C)CC2 [Compound T32] | 4.2 ± 1.3 | – | 0.399 ± 0.111 | 5.34 ± 1.15 | – | 2.52 ± 1.11 |
| C[C@@H]1[C@H]2[C@H]3C(=O)C=C4[C@@]5(C)C=C(C#N)C(=O)C(C)(C)[C@@H]5CC[C@@]4(C)[C@]3(C)CC[C@@]2(CNS(=O)(=O)C2CC2)CC[C@H]1C [Compound T33] | 6.93 ± 1 | – | 0.621 ± 0.137 | 6.84 ± 1.59 | – | 2.32 ± 0.42 |
| CC(=O)N(C)C[C@]12CC[C@@H](C)[C@H](C)[C@H]1[C@H]1C(=O)C=C3[C@@]4(C)C=C(C#N)C(=O)C(C)(C)[C@@H]4CC[C@@]3(C)[C@]1(C)CC2 [Compound T35] | 5.05 ± 1.1 | 5.05 ± 1.1 | 0.442 ± 0.136 | 5.57 ± 2 | 5.57 ± 2 | 1.66 ± 0.32 |
| CNC(=O)N(C)C[C@]12CC[C@@H](C)[C@H](C)[C@H]1[C@H]1C(=O)C=C3[C@@]4(C)C=C(C#N)C(=O)C(C)(C)[C@@H]4CC[C@@]3(C)[C@]1(C)CC2 [Compound T36] | 5.21 ± 1.17 | 5.21 ± 1.17 | 0.441 ± 0.075 | 5.08 ± 1.51 | 5.08 ± 1.51 | 1.25 ± 0.47 |
| [2H]C([2H])([2H])C(=O)N(C)C[C@]12CC[C@@H](C)[C@H](C)[C@H]1[C@H]1C(=O)C=C3[C@@]4(C)C=C(C#N)C(=O)C(C)(C)[C@@H]4CC[C@@]3(C)[C@]1(C)CC2 [Compound T37] | 6.04 ± 2.15 | – | 0.486 ± 0.047 | 5.76 ± 1.38 | – | 2.08 ± 0.31 |
| C[C@@H]1[C@H]2[C@H]3C(=O)C=C4[C@@]5(C)C=C(C#N)C(=O)C(C)(C)[C@@H]5CC[C@@]4(C)[C@]3(C)CC[C@@]2(CN(C)C(=O)C(C)(F)F)CC[C@H]1C [Compound T38] | 34.5 ± 7.6 | – | 2.76 ± 0.32 | 39.2 ± 4.2 | – | 9.52 ± 1.82 |
| C[C@@H]1[C@H]2[C@H]3C(=O)C=C4[C@@]5(C)C=C(C#N)C(=O)C(C)(C)[C@@H]5CC[C@@]4(C)[C@]3(C)CC[C@@]2(CN(C)C(=O)C(F)F)CC[C@H]1C [Compound T39] | 9.58 ± 2.31 | – | 0.799 ± 0.095 | 10.4 ± 2.6 | – | 3.38 ± 0.68 |
| C[C@@H]1[C@H]2[C@H]3C(=O)C=C4[C@@]5(C)C=C(C#N)C(=O)C(C)(C)[C@@H]5CC[C@@]4(C)[C@]3(C)CC[C@@]2(CNCCO)CC[C@H]1C [Compound T40] | 16.1 ± 1.5 | 16.1 ± 1.5 | 1.2 ± 0.2 | 25.8 ± 9.3 | 25.8 ± 9.3 | 9.8 ± 5.7 |
| C[C@@H]1[C@H]2[C@H]3C(=O)C=C4[C@@]5(C)C=C(C#N)C(=O)C(C)(C)[C@@H]5CC[C@@]4(C)[C@]3(C)CC[C@@]2(CN2CCOC2=O)CC[C@H]1C [Compound T41] | 4.73 ± 2.12 | 4.73 ± 2.12 | 0.354 ± 0.155 | 5.41 ± 2.52 | 5.41 ± 2.52 | 1.79 ± 0.77 |
